# Assay results from patent EP0991643B1 (SCHERING CORPORATION, priority 1997, dated 1998).
# Target: T1, partially purified rat brain farnesyl protein transferase (FPT) (Rattus norvegicus, UniProt Q02293+Q04631)
# T1 construct: partially purified rat brain farnesyl protein transferase (FPT); from tissue; host or cells: rat brain
# Assay: In vitro enzyme assay: inhibition of Ras-CVLS farnesylation by farnesyl protein transferase (FPT)
# Type: biochemical
# Settings: H-ras (Ras-CVLS) substrate; methods of WO 95/10515 or WO 95/10516
# Method: (§1) 1. In vitro enzyme assays: FPT IC50 (inhibition of farnesyl protein transferase, in vitro enzyme assay) are determined by the methods disclosed in […] or WO 95/10516. […] 2. Cell-based assay. COS IC50 values refer to the COS cells activity inhibition of Ras processing, are determined by the methods disclosed in […] or WO 95/10516.
# T1 sequence (Q02293 whole entry, one chain of several): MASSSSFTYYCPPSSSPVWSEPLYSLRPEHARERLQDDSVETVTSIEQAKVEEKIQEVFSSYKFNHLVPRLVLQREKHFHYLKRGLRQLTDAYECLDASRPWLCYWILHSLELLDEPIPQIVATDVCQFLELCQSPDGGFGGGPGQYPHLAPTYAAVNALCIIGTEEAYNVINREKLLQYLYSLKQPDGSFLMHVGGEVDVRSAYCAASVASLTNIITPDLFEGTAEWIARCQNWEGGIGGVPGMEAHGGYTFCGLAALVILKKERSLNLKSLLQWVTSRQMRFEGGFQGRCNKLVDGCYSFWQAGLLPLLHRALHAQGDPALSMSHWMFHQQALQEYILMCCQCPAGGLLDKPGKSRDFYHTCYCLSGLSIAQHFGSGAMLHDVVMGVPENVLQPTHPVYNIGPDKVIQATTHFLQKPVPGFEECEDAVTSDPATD
row,SMILES,IC50 [nM]
1,CC(C)=NOCC(=O)N1CCC([C@H]2c3ncc(Br)cc3CCc3cc(Cl)cc(Br)c32)CC1 [Example 2],6.5
2,COc1ccc(/C(C)=N/OCC(=O)N2CCC([C@H]3c4ncc(Br)cc4CCc4cc(Cl)cc(Br)c43)CC2)cc1 [Example 3],180
3,"CC(C)=NOCCC(=O)N1CCC([C@H]2c3ncc(Br)cc3CCc3cc(Cl)cc(Br)c32)CC1 [Example 4, (+)-4-(3,10-dibromo-8-chloro-6,11-dihydro-5H-benzo[5,6]cyclohepta[1,2-b]pyridin-11(R)-yl)-1-[3-[[(1-methylethylidene]amino]oxy]-1-oxopropyl]piperidine]",54
4,"CC(C)(C)OC(=O)NOCC(=O)N1CCC([C@H]2c3ncc(Br)cc3CCc3cc(Cl)cc(Br)c32)CC1 [Example 5, (+)-1,1-Dimethylethyl-N-[2-[4-(3,10-dibromo-8-chloro-6,11-dihydro-5H-benzo[5,6]cyclohepta[1,2-b]pyridin-11(R)-yl)-1-piperidinyl]-2-oxoethoxy]carbamate]",170
5,O=C(CO/N=C/c1cc[n+]([O-])cc1)N1CCC([C@H]2c3ncc(Br)cc3CCc3cc(Cl)cc(Br)c32)CC1 [Example 6],3.6
6,O=C(CO/N=C/c1ccccc1O)N1CCC([C@H]2c3ncc(Br)cc3CCc3cc(Cl)cc(Br)c32)CC1 [Example 7],370
7,"C/C(=N\OCC(=O)N1CCC([C@H]2c3ncc(Br)cc3CCc3cc(Cl)cc(Br)c32)CC1)c1ccc(Cl)cc1 [Example 8, (+)-1-[[[[(E)-1-(4-chlorophenyl)ethylidene]amino]oxy]acetyl]-4-(3,10-dibromo-8-chloro-6,11-dihydro-5H-benzo[5,6]cyclohepta[1,2-b]pyridin-11(R)-yl)piperidine]",> 180
8,"C/C(=N\OCC(=O)N1CCC([C@H]2c3ncc(Br)cc3CCc3cc(Cl)cc(Br)c32)CC1)c1cccs1 [Example 9, (+)-4-(3,10-dibromo-8-chloro-6,11-dihydro-5H-benzo[5,6]cyclohepta[1,2-b]pyridin-11(R)-yl)-1-[[[[(E)-1-(2-thienyl)ethylidene]amino]oxy]acetyl]piperidine]",150
9,"O=C(CON=C1CCCCC1)N1CCC([C@H]2c3ncc(Br)cc3CCc3cc(Cl)cc(Br)c32)CC1 [Example 10, (+)-4-(3,10-dibromo-8-chloro-6,11-dihydro-5H-benzo[5,6]cyclohepta[1,2-b]pyridin-11(R)-yl)-1-[[[[(cyclohexylidene]amino]]oxy]acetyl]piperidine]",35
10,O=C(CON=C1CCC2(CC1)OCCO2)N1CCC([C@H]2c3ncc(Br)cc3CCc3cc(Cl)cc(Br)c32)CC1 [Example 11],24
11,O=C(CON=C1CCOCC1)N1CCC([C@H]2c3ncc(Br)cc3CCc3cc(Cl)cc(Br)c32)CC1 [Example 12],12
12,O=C(CON=C1CCSCC1)N1CCC([C@H]2c3ncc(Br)cc3CCc3cc(Cl)cc(Br)c32)CC1 [Example 13],13
13,"CC(=O)NOCC(=O)N1CCC([C@H]2c3ncc(Br)cc3CCc3cc(Cl)cc(Br)c32)CC1 [Example 14, (+)-N-[2-[4-(3,10-dibromo-8-chloro-6,11-dihydro-5H-benzo[5,6]cyclohepta[1,2-b]pyridin-11(R)-yl)-1-piperidinyl]-2-oxoethoxy]acetamide]",31

# Tested on: Ras processing in COS cells
# Assay: Cell-based assay: inhibition of Ras processing in COS cells
# Settings: not given
# Method: as §1
row,SMILES,IC50 [nM]
1,O=C(CO/N=C/c1cc[n+]([O-])cc1)N1CCC([C@H]2c3ncc(Br)cc3CCc3cc(Cl)cc(Br)c32)CC1 [Example 6],690
